{"source": "patent US7160887B1", "about": "“Aromatic amine derivatives, their production and use” (Takeda Pharmaceutical Company Limited, priority 1998, dated 2007)", "note": "Counter-ions that a name gives are not always drawn."}
{"compound": "NCCc1cccc(Oc2cc(Cl)ccc2N(Cc2ccc(-c3ccccc3)cc2)C(=O)CCC(=O)NCc2ccccc2F)c1", "note": "(as salt: hydrochloride) [Example 14, N-[2-[3-(2-aminoethyl)phenoxy]-4-chlorophenyl]-N-(4-biphenylmethyl)-N′-(2-fluorobenzyl)succinamide hydrochloride]", "values": [{"measurement": "melting point", "value": "123 to 125", "unit": "°C"}]}
